Results on six molecules are retold here after article PMC11427300, “Cryptic enzymatic assembly of peptides armed with β-lactone warheads” (Nature Chemical Biology, 2024).

SMILES strings stand for the structures.

Format in all cases: biochemical
Assay [1] has as its target T1, CysE (Kitasatospora cystarginea, UniProt A0A1W6R564).
T1 construct: C-terminal His tag (pET28-a(+)), E. coli BL21(DE3)
T1 sequence (A0A1W6R564 1-271): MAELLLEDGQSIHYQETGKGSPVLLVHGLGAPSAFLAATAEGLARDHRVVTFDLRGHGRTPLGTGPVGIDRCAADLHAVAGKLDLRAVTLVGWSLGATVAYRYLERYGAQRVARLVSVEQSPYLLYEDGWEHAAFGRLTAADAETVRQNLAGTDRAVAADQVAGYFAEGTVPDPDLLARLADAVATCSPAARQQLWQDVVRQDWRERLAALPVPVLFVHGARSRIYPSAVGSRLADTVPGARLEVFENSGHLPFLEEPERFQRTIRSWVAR
The assay can be described thus: LC-MS, tandem assay with CysF. The conditions noted are these: 3a generated in situ from 2a by CysF and ATP; MgCl2, phosphate pH 7.8, 25 °C.

The target of assay [2] is T2, BhCysFE (Bradyrhizobium huanghuaihaiense, UniProt A0A562R406).
T2 construct: gene IQ16_06114; natural fusion (CysF-like aa 1-487, linker ATPVNMR, CysE-like aa 495-768), C-terminal His tag (pET28-a(+)), E. coli
T2 sequence (A0A562R406 1-768): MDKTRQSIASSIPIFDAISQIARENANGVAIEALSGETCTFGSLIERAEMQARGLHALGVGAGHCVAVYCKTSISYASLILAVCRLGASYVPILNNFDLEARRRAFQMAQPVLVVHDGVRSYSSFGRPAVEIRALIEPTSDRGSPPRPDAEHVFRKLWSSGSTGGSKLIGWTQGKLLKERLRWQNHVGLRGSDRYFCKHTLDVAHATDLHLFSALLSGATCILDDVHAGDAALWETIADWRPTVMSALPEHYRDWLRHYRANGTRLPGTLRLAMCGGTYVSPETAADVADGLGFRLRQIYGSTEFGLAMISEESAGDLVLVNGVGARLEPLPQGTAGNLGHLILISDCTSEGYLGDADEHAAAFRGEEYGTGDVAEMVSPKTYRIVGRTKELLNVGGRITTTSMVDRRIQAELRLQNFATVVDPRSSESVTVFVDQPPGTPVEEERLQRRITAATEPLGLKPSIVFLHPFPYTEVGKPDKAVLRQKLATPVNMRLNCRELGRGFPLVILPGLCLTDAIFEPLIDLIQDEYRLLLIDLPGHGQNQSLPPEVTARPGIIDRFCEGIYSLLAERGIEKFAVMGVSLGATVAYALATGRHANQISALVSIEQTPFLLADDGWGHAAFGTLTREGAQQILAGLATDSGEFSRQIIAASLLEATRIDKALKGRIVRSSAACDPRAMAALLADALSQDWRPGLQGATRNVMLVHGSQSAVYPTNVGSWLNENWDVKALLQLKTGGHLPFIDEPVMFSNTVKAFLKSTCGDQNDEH
The assay can be described thus: LC-MS.

For assay [3], the target named is T3, CysF (Kitasatospora cystarginea, UniProt A0A1W6R555).
T3 construct: C-terminal His tag (pET21-a(+)), E. coli; 8RA0 is the apo structure, residues 1-491 mentioned
T3 sequence (A0A1W6R555 1-491): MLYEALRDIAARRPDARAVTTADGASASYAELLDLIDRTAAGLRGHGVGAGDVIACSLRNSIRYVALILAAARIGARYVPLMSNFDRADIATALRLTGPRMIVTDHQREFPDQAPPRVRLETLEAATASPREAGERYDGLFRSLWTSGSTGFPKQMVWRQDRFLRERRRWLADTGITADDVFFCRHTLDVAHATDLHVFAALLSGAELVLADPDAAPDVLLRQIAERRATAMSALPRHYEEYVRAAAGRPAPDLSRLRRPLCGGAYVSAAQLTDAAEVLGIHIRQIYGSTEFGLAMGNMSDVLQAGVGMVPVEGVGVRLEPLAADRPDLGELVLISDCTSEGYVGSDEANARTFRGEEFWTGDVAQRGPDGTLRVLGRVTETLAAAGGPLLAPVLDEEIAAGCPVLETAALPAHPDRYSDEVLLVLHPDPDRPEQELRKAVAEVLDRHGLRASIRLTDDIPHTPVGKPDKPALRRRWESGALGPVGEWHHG
Nature of the assay: GC-MS and 1H NMR product analysis. The conditions noted are these: ATP, MgCl2, phosphate pH 7.8, 25 °C; β-lactonization to 3a.

For assay [4], the target named is T4, CysG (Kitasatospora cystarginea, UniProt A0A1W6R556).
T4 construct: C-terminal His tag (pET28-a(+)), E. coli BL21(DE3)
T4 sequence (A0A1W6R556 1-228): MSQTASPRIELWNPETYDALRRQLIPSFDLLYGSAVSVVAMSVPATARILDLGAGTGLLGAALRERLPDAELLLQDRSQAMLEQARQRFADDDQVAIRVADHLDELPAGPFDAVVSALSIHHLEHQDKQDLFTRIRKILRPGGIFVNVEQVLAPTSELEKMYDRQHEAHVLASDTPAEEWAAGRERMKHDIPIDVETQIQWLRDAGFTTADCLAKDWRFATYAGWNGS
Nature of the assay: LC-MS and NMR product analysis. The note with it: MgCl2, phosphate pH 7.8, 25 °C.

In assay [5] the target is T3, CysF. Nature of the assay: LC-MS, hydroxylamine trapping as hydroxamic acid […]. The conditions noted are these: ATP, adenylation only, no lactone formed.
Assay [6] deals with T5, BelH (Streptomyces sp., UniProt A0A1W6R584).
T5 construct: N-terminal His tag (pET28-a(+)), E. coli BL21(DE3)
T5 sequence (A0A1W6R584 1-491): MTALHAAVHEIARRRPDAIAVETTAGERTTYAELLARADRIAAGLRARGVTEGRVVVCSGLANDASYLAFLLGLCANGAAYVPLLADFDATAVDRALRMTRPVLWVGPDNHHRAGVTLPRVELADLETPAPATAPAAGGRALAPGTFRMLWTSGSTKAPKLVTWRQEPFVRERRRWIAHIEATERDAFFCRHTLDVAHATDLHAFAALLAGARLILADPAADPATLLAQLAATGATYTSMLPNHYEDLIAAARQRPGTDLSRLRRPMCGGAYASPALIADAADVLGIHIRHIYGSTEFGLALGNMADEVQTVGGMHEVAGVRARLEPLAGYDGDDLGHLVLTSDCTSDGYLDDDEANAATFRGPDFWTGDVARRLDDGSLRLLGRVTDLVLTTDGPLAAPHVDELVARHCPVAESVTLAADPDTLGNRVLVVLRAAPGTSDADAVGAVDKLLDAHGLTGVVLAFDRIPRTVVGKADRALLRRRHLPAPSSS
Nature of the assay: LC-MS and GC-MS, cascade assay with BelI or BelR. The note with it: ATP, MgCl2, phosphate pH 7.8, 25 °C; β-lactonization to 3b.

Take `COC(=O)[C@@H]1OC(=O)[C@H]1C(C)C` [3a, β-lactone methyl ester 3a]: the “LC-MS, tandem assay with CysF” value in assay [1] is “tandem reaction with CysF and CysE, including ATP, resulted in the β-lactone carboxylic acid 4a”. Regarding `COC(=O)[C@H](O)[C@@H](C(=O)O)C(C)C` [2a, C1-methyl ester 2a], in assay [2] (ATP, lactonization and ester hydrolysis to 4a), the LC-MS entry was “incubated with 2a and ATP, leading to a quantitative production of 4a”. Also, in assay [3], the “GC-MS and 1H NMR product analysis” value is given as 2a was again consumed in the CysF reaction with ATP. `C[S+](CC[C@H](N)C(=O)O)C[C@H]1O[C@@H](n2cnc3c(N)ncnc32)[C@H](O)[C@@H]1O` (some centres unmarked) [S-adenosyl methionine]: the “LC-MS and NMR product analysis” value in assay [4] (co-substrate 1a) is “CysG exclusively produced the C1-methyl ester 2a from 1a and SAM”. As for `CC(C)[C@H](C(=O)O)[C@@H](O)C(=O)O` [1a, malic acid 1a], the “LC-MS, hydroxylamine trapping as hydroxamic acid 10” value in assay [5] is on record as “CysF can efficiently activate the C4-carboxyl of 1a”. Moreover, the “LC-MS and NMR product analysis” value in assay [4] (SAM, C1-carboxylate methylated) is “CysG exclusively produced the C1-methyl ester 2a from 1a and SAM”.

Consider `CCC(C)[C@H](C(=O)O)[C@@H](O)C(=O)OC` (some centres unmarked) [2b], for which, in assay [6], the “LC-MS and GC-MS, cascade assay with BelI or BelR” value was “GC-MS analysis of the CysGF and BelIH cascade confirmed the formation of 3a/b”. As to `Nc1ncnc2c1ncn2[C@@H]1O[C@H](COP(=O)(O)OP(=O)(O)OP(=O)(O)O)[C@@H](O)[C@H]1O` [adenosine triphosphate], the LC-MS entry in assay [2] (co-substrate 2a) is “incubated with 2a and ATP, leading to a quantitative production of 4a”.
